The text below walks through data of patent US8937183B2, “Detection of hydrogen peroxide” (Promega Corporation, priority 2011, dated 2015).

One experiment relates to HepG2 cells. The experiment is described as follows: Detection of reactive oxygen generation in cells treated with menadione or 4-aminobiphenyl, HepG2. The experiment is classed as cell-based. Conditions: for response of signal to menadione or 4-aminobiphenyl (in words): HepG2; for averaged bioluminescence: 60 minutes 37° C. As for the experimental part:
(§1) In this example, various compounds shown to react with hydrogen peroxide were incubated with cells treated with menadione and 4-aminobiphenyl, two compounds that can generate reactive oxygen species (ROS). Menadione causes the direct production of reactive oxygen within the cell and is a very strong inducer of a ROS effect (Sun, J S et. al. Cell Mol Life Sci (1997) vol 53 pp 967-76). 4-aminobiphenyl is believed to require metabolic conversion to a quinine-like structure before being able to induce the formation of a ROS (Makena, P and Chung, K T. Environ. Mol. Mutagen. (2007), vol 48, pp 404-413).
(§2) A 40 mM solution of 4-aminobiphenyl (Sigma A2898-1g) was made by dissolving 2.5 mg in 375 μl of DMSO (Fluka) to create a 40 mM solution. 50 μl of 4 mg/ml PBI 4458 in DMSO was diluted to 1 ml with HBSS buffer (Invitrogen), and 100 μl added to wells A1 and A2 of a microtiter plate. A 10 μl sample of 40 mM 4-aminobiphenyl was mixed with 190 μl of the remaining PBI 4458 in HBSS, and 60 μl added to wells B1 and B2 and 30 μl to wells C1 and C2. A 10 μl sample of 40 mM menadione in DMSO was mixed with 190 μl of the remaining PBI 4458 in HBSS, and 60 μl added to wells D1 and D2 and 30 μl to E1 and E2. The volume in wells B1 to E2 was then adjusted to 100 μl by addition of remaining PBI 4458 in HBSS.
(§3) 50 μl of 4 mg/ml PBI 4480 in DMSO was diluted to 1 ml with HBSS buffer, and 100 μl placed in wells A3 and A4 of the microtiter plate. A 10 μl sample of 40 mM 4 aminobiphenyl was mixed with 190 μl of the remaining PBI 4480 in HBSS, and 60 μl added to wells B3 and B4 and 30 μl to wells C3 and C4. A 10 μl sample of 40 mM menadione in DMSO was mixed with 190 μl of the remaining PBI 4480 in HBSS, and 60 μl added to wells D3 and D4 and 30 μl added to wells E3 and E4. The volume in wells B3 to E4 was then adjusted to 100 μl by addition of left over PBI 4480 in HBSS.
(§4) 50 μl of 4 mg/ml PBI 3048 in DMSO was diluted to 1 ml with HBSS, and 100 μl added to wells A5 and A6 of the microtiter plate. A 10 μl sample of 40 mM 4 aminobiphenyl was mixed with 190 μl of the remaining PBI 3048 in HBSS, and 60 μl added to wells B5 and B6 and 30 μl added to wells C5 and C6. A 10 μl sample of 40 mM menadione in DMSO was mixed with 190 μl of the remaining PBI 3048 in HBSS, and 60 μl added to wells D5 and D6 and 30 μl added to wells E5 and E6. The volume in wells B5 to E6 was then adjusted to 100 μl by addition of the remaining PBI 3048 in HBSS.
(§5) Two cell culture plates were seeded with cells resuspended in HBSS. One plate contained 20,000 Jurkat cells/well in wells A1-H6. The other plate contained 20,000 HepG2 cells/well in wells A1-H6. Both plates were incubated overnight in DMEM with 10% fetal bovine serum (FBS). The media from the HepG2 cells was removed, discarded, and replaced with 50 μl of HBSS. A 50 μl sample of wells A1-H6 from the plate with the various PBI compounds was transferred to the corresponding wells in the two cell culture plates, and incubated for 60 minutes in a 37° C., 5% CO2 incubator.
(§6) 50 μl of LDR (Example 23) and 25 μl of 1 mM D-cysteine in 100 mM HEPES buffer, pH 7.5 was added to all wells of a new luminometer plate. After incubation, a 25 μl sample of wells A1-H6 containing Jurkat cells was added to wells A1-H6 of the new luminometer plate, and a 25 μl sample of wells A1-H6 containing HepG2 cells was added to wells A7-H12 of the new luminometer plate. The plate was incubated at room temperature for 15 minutes, and bioluminescence detected on a GloMax® luminometer.
(§7) The bioluminescence from the duplicate samples was averaged and compared to the values of the cells in A row (Table 4).

In the next experiment the test system is Jurkat cells. The experiment is described as follows: Detection of reactive oxygen generation in cells treated with menadione or 4-aminobiphenyl, Jurkat. The conditions noted are these: for averaged bioluminescence: 60 minutes 37° C. The experiment is classed as cell-based. As for the experimental part: as §1, §2, §3, §4, §5, §6, §7

For `O=C(O)C1CSC(c2nc3ccc(OCc4ccc(B(O)O)cc4)cc3s2)=N1` (stereo not drawn) [PBI 3048], the “response of signal to menadione or 4-aminobiphenyl (in words)” value (“response of signal” below) in the experiment on HepG2 cells and in the experiment with Jurkat cells was “do not show as clear of a response” in each case. Further, the averaged bioluminescence was 364,353 in the experiment on HepG2 cells (HepG2, 300 μM 4ABP); 426,802 in the experiment on HepG2 cells (HepG2, 300 μM Menadione); 383,471 in the experiment with HepG2 cells (HepG2, 600 μM 4ABP); 408,177 in the experiment on HepG2 cells (HepG2, 600 μM Menadione); 407,917 in the experiment with HepG2 cells (HepG2, No Effector); 363,182 with Jurkat cells (300 μM 4ABP). Further, the averaged bioluminescence with Jurkat cells (300 μM Menadione) is given as 434,344; in the experiment on Jurkat cells (600 μM 4ABP), 366,188; in the experiment on Jurkat cells (600 μM Menadione), 403,013; in the experiment with Jurkat cells (No Effector) it was 413,753.
Turning to `CC1(C)OB(/C=C/COc2ccc3nc(C#N)sc3c2)OC1(C)C` [PBI 4458, (E)-6-((3-(4,4,5,5-tetramethyl-1,3,2-dioxaborolan-2-yl)allyl)oxy)-benzo[d]thiazole-2-carbonitrile], the “response of signal” value in the experiment with HepG2 cells and in the experiment on Jurkat cells was “above those for the cells that were not given any effector” each time. Moreover, the averaged bioluminescence with HepG2 cells (HepG2, 300 μM 4ABP) is given as 163,031; in the experiment on HepG2 cells (HepG2, 300 μM Menadione), 622,230; with HepG2 cells (HepG2, 600 μM 4ABP), 169,952; in the experiment with HepG2 cells (HepG2, 600 μM Menadione) it was 728,404; with HepG2 cells (HepG2, No Effector), 117,111; with Jurkat cells (300 μM 4ABP), 213,059. Also, the averaged bioluminescence in the experiment on Jurkat cells (300 μM Menadione) is listed as 742,717; in the experiment with Jurkat cells (600 μM 4ABP) it was 195,096; in the experiment on Jurkat cells (600 μM Menadione), 895,269; in the experiment on Jurkat cells (No Effector) it was 174,206.
Consider `CC1(C)OB(c2ccc(COc3ccc4nc(C#N)sc4c3)c3ccccc23)OC1(C)C` [PBI 4480, 6-((4-(4,4,5,5-tetramethyl-1,3,2-dioxaborolan-2-yl)naphthalen-1-yl)methoxy)benzo[d]thiazole-2-carbonitrile], for which the “response of signal” value with HepG2 cells and in the experiment with Jurkat cells was “do not show as clear of a response” throughout. Also, the averaged bioluminescence in the experiment with HepG2 cells (HepG2, 300 μM 4ABP) is given as 20,574; in the experiment with HepG2 cells (HepG2, 300 μM Menadione), 20,788; in the experiment on HepG2 cells (HepG2, 600 μM 4ABP), 21,023; in the experiment with HepG2 cells (HepG2, 600 μM Menadione), 20,509; in the experiment on HepG2 cells (HepG2, No Effector), 19,627; in the experiment on Jurkat cells (300 μM 4ABP) it was 29,810. Besides, the averaged bioluminescence in the experiment on Jurkat cells (300 μM Menadione) is on record as 29,806; with Jurkat cells (600 μM 4ABP), 29,277; with Jurkat cells (600 μM Menadione), 27,535; in the experiment with Jurkat cells (No Effector), 34,646.
